Drawing on patent US9868717B2, “Tricyclic sulphonamide compounds and methods of making and using same” (Zafgen, Inc., priority 2012, dated 2018), this text covers IC50 for seven compounds.

The target in this experiment is T1, Human recombinant MetAP2 (Homo sapiens, UniProt P50579).
T1 construct: made in house; host or cells: Sf9 insect cells
T1 sequence (P50579 whole entry): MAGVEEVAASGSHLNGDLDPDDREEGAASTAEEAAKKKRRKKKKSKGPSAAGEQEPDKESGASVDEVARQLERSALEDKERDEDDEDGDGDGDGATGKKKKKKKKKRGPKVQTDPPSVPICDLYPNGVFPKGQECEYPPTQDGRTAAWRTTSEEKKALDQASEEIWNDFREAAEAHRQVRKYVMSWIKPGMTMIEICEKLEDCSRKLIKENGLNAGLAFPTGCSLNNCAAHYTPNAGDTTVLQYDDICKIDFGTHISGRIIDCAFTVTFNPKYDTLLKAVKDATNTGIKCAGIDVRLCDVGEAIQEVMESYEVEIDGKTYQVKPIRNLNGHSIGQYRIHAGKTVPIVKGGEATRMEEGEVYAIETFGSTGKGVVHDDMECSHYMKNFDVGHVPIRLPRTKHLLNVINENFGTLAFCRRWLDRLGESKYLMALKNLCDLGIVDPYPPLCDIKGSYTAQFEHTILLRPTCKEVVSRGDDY
Briefly: inhibition of recombinant human MetAP2 activity (MAS substrate, amino acid oxidase/Amplex red fluorescence). In kind it is biochemical. The conditions noted are these: manganese enzyme, 30 minutes at 25° C., pH 7.5, 0.75 mM MAS substrate, 1% DMSO. The procedure: Compounds are tested for their capacity to inhibit recombinant human MetAP2 activity using the following assay.
Human recombinant MetAP2 expressed in Sf9 cells followed by affinity purification and EDTA treatment to remove endogenous active site cation was dialysed against MnCl2 to produce the manganese enzyme used in the assay. The assay was carried out for 30 minutes at 25° C. in 50 mM HEPES buffer containing 100 mM NaCl, pH 7.5 the presence of 0.75 mM Methionine-Alanine-Serine (MAS) substrate and 50 μg/ml amino acid oxidase using a dilution of purified MetAP2 giving >3-fold signal:noise. Cleavage of the substrate by MetAP2 and oxidation of free methionine by amino acid oxidase was detected and quantified using fluorescence generated by Amplex red (10-acetyl-3,7-dihydroxyphenoxazine) in combination with horseradish peroxidase which detects H2O2 released during the oxidation step. The fluorescent signal was detected using a multiwell fluorimeter. Compounds were diluted in DMSO prior to addition to assay buffer, the final DMSO concentration in the assay being 1%.
The IC50 is defined as the concentration at which a given compound achieves 50% inhibition of control. IC50 values are calculated using the XLfit software package (version 2.0.5).
On to `O=C(O)c1c(NS(=O)(=O)c2ccc(F)cc2C2CC2CN2CCCC2)ccc2c1OC[C@@H]1C[C@H]21` (stereo partly drawn) [Example 4, (1aR,7bS)-5-{4-Fluoro-2-[2-(pyrrolidin-1-ylmethyl)cyclopropyl]benzene-sulfonylamino}-1,1a,2,7b-tetrahydrocyclopropa[c]chromene-4-carboxylic acid], for which the IC50 lay within 50 to 500 nM. Consider `CC(C)(O)[C@@H]1CCN(C/C=C\c2cc(F)ccc2S(=O)(=O)Nc2ccc3c(c2C(=O)O)OC[C@@H]2C[C@H]32)C1` [Example 28, (1aR,7bS)-5-(4-Fluoro-2-{(Z)-3-[(R)-3-(2-hydroxypropan-2-yl)pyrrolidin-1-yl]prop-1-enyl}benzenesulfonylamino)-1,1a,2,7b-tetrahydrocyclopropa[c]chromene-4-carboxylic acid], for which the half-inhibitory concentration (IC50) is below 50 nM. `CCN1CCCC(Cc2cc(F)ccc2S(=O)(=O)Nc2ccc3c(c2C(=O)O)OCC2CC32)C1` (single isomer, unassigned) [Example 15]: the 50% inhibitory concentration (IC50) was below 50 nM. As for `CC(C)(O)[C@H]1CCN(C/C=C\c2cc(F)ccc2S(=O)(=O)Nc2ccc3c(c2C(=O)O)OC[C@@H]2C[C@H]32)C1` [Example 27, (1aR,7bS)-5-(4-Fluoro-2-{(Z)-3-[(S)-3-(2-hydroxypropan-2-yl)pyrrolidin-1-yl]prop-1-enyl}benzenesulfonylamino)-1,1a,2,7b-tetrahydrocyclopropa[c]chromene-4-carboxylic acid], the figure is below 50 nM. As to `O=C(O)c1c(NS(=O)(=O)c2ccc(F)cc2C[C@H]2CCNC2)ccc2c1OC[C@@H]1C[C@H]21` [Example 7, (1aR,7bS)-5-[4-Fluoro-2-((S)-pyrrolidin-3-ylmethyl)benzenesulfonylamino]-1,1a,2,7b-tetrahydrocyclopropa[c]chromene-4-carboxylic acid], the concentration for half-maximal inhibition (IC50) was below 50 nM. With `O=C(O)c1c(NS(=O)(=O)c2ccc(F)cc2C[C@@H]2CCNC2)ccc2c1OC[C@@H]1C[C@H]21` [Example 6, (1aR,7bS)-5-[4-Fluoro-2-((R)-pyrrolidin-3-ylmethyl)benzenesulfonylamino]-1,1a,2,7b-tetrahydrocyclopropa[c]chromene-4-carboxylic acid], the IC50 was below 50 nM. For `O=C(O)c1c(NS(=O)(=O)c2ccc(F)cc2/C=C\CN2CCC(O)CC2)ccc2c1OC[C@@H]1C[C@H]21` [Example 21, (1aR,7bS)-5{4-Fluoro-2-[(Z)-3-(4-hydroxypiperidin-1-yl)prop-1-enyl]benzenesulfonylamino}-1,1a,2,7b-tetrahydrocyclopropa[c]chromene-4-carboxylic acid] the value was 50 to 500 nM.

Usually IC50 stands for the concentration at which inhibition is half-maximal.
